# Source: ChEMBL document CHEMBL1201862, “PubChem BioAssay data set” (2004)
# The source made the active and inactive calls.
# How the values were obtained:
# [1] = target: T1, Short transient receptor potential channel 4 (Mus musculus, UniProt Q9QUQ5); test: mouse TRPC4 channel activators, dose response, cell-based, HEK293 TRPC4/mu-opioid, Fluo-4 calcium (AID 434937); format: functional
# T1 sequence (Q9QUQ5 whole entry): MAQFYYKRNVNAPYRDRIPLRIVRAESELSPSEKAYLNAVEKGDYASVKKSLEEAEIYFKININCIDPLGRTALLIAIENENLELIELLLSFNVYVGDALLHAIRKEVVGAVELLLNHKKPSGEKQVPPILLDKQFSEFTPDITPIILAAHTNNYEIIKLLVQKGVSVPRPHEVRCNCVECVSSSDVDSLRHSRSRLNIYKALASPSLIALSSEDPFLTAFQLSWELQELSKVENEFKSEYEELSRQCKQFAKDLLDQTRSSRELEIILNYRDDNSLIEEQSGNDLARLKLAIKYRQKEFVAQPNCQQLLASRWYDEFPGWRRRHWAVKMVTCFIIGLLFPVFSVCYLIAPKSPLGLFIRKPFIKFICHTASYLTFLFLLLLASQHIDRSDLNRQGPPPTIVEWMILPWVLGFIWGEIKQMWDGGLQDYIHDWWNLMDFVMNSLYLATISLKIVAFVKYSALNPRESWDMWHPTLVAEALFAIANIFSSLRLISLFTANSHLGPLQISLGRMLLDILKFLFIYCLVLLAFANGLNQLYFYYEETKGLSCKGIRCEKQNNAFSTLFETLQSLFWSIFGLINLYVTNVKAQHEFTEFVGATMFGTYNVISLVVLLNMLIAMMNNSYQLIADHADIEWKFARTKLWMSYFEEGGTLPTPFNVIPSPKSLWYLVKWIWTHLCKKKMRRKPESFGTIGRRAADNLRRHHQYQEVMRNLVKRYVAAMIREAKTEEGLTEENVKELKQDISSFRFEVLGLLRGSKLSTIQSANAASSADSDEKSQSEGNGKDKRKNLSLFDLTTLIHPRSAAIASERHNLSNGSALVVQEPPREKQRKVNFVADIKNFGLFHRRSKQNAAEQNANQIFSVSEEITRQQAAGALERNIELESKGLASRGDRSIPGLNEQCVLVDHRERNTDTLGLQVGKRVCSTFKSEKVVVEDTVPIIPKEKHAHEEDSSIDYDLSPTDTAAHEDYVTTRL
# [2] = target: T2, Estrogen receptor beta (Homo sapiens, UniProt Q92731); test: ERβ–SRC-3 coactivator interaction inhibitors, confirmation, orthogonal assay, biochemical, ELISA, streptavidin-HRP readout (AID 1060)
# [3] = target: T2, Estrogen receptor beta
# [4] = inhibitors of Vif binding to APOBEC3G peptide, primary screen, biochemical, TR-FRET, GST-Vif 1-94, biotin-A3G peptide, dose response retest (AID 1117319); format: functional;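 further: TR-FRET signal of purified GST-Vif binding a biotinylated A3G peptide; inhibitors lower the FRET signal by blocking Vif and A3G binding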
# [5] = target: T3, Zinc finger protein mex-5 (Caenorhabditis elegans, UniProt Q9XUB2); test: MEX-5/TCR-2 RNA interaction inhibitors, dose response, biochemical, C. elegans, fluorescence polarization (AID 1960)
# T3 sequence (Q9XUB2 whole entry): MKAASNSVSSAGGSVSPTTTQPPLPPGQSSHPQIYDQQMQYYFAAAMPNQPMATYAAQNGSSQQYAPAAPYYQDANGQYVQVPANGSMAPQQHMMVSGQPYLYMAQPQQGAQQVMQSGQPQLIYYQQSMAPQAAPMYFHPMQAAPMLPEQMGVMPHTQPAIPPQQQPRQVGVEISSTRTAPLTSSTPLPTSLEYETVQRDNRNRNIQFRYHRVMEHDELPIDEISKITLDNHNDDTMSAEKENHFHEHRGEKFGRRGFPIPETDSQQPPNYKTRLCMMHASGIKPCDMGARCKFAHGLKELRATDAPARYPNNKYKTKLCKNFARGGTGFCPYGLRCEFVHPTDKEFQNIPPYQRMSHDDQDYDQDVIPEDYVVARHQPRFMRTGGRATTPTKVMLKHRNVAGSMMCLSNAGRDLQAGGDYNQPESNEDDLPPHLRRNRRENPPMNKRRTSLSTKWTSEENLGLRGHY
# [6] = target: T4, RNA-binding protein pos-1 (Caenorhabditis elegans, UniProt G5EF15); test: inhibitors of POS-1/mex-3 RNA binding, dose response, biochemical, fluorescence polarization (AID 1964);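 further: purified POS-1 fused to maltose binding protein made in E. coli; potency of compounds blocking POS-1 binding to fluorescent RNA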
# T4 sequence (G5EF15 whole entry): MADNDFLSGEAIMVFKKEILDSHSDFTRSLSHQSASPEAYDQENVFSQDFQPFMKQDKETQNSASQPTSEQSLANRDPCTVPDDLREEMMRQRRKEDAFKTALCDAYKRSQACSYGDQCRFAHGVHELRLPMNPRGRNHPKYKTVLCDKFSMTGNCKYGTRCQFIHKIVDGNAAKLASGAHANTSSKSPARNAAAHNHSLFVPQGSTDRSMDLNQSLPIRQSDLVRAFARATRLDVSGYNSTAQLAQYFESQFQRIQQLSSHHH
# [7] = target: T5, Heat shock factor protein 1 (Mus musculus, UniProt P38532); test: inhibition of MG132-induced HSE-luciferase signal, confirmation, cell-based, NIH3T3, luminescence, dose retest (AID 2382); format: functional;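 further: NIH3T3 fibroblasts with HSF1-driven luciferase reporter stressed by proteasome inhibitor MG132; luminescence from HSF1-driven luciferase expression after 8 hours of MG132 stress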
# T5 sequence (P38532 whole entry): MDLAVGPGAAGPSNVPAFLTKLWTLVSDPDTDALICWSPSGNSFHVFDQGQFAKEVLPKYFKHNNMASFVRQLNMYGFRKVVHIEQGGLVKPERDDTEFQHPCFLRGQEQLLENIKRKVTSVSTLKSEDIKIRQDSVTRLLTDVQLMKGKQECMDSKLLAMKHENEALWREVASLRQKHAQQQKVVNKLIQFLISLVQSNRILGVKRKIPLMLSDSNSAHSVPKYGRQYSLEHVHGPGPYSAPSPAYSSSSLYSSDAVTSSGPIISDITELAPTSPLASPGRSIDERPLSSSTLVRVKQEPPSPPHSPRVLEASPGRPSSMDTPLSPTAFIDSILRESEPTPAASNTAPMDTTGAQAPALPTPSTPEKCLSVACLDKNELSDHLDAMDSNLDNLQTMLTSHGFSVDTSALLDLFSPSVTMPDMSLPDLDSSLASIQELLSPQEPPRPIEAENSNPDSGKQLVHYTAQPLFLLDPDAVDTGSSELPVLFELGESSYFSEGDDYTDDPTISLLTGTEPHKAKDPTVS
# [8] = target: Voltage-dependent T-type calcium channel subunit alpha-1H (Homo sapiens, UniProt O95180); format: functional;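 further: channel activity triggered by adding a high calcium stimulation buffer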
# [9] = cells; format: functional, cell-based
# [10] = Vero E6 cell cytotoxicity, dose response, cytotoxicity control for non-replicating M. tuberculosis project, secondary assay (AID 492998); format: functional, VeroE6; settings: Vero C1008
# [11] = system: INS1; test: beta cell apoptosis inhibitors, cytokine rescue, dose response, luminescence, retest (AID 449756); format: functional, cell-based; settings: Rattus norvegicus;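 further: cell death triggered by IL-1 beta plus TNF-alpha plus IFN-gamma mixture; protective hits raise ATP signal compared with cytokine alone wells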
# [12] = THP-1 cell cytotoxicity, dose response, cytotoxicity control for non-replicating M. tuberculosis project (AID 489025); format: functional
# [13] = system: Vero; test: cells; format: functional; settings: Chlorocebus sabaeus
# [14] = cells; format: functional, cell-based; remark: listed apart in the source
# [15] = cells; format: functional
# [16] = target: T6, Calpain-2 catalytic subunit (Sus scrofa, UniProt P43367); test: pig calpain II inhibitor potency, dose response, biochemical, fluorogenic peptide substrate (AID 1420); format: functional
# T6 sequence (P43367 whole entry): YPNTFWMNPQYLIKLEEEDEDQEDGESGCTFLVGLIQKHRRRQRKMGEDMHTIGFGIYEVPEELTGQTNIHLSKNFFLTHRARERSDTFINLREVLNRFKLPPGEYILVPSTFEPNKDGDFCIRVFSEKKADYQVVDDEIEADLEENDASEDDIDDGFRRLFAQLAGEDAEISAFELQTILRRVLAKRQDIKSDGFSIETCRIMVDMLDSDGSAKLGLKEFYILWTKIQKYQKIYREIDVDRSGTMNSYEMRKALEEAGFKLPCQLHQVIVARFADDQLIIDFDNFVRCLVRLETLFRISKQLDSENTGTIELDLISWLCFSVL
# [17] = HepG2 cell cytotoxicity, dose response, cytotoxicity control for non-replicating M. tuberculosis project (AID 489018); format: functional; settings: Mycobacterium tuberculosis
# [18] = target: T7, Polyadenylate-binding protein 1 (Homo sapiens, UniProt P11940); test: PABP1 MLLE–PAM2 binding inhibitor potency, dose response, biochemical, fluorescence polarization, FITC-PAM2 peptide (AID 602259); format: functional; settings: read-out: IC50_Mean
# [19] = target: T7, Polyadenylate-binding protein 1; test: PABP1 MLLE–PAM2 interaction inhibitors, dose response, miRNA deadenylation inhibitor project, biochemical, fluorescence polarization, Cy5-PAM2 peptide, secondary (AID 602260); format: functional; settings: read-out: IC50_Mean
# Voltage-dependent T-type calcium channel subunit alpha-1H, sequence (O95180 whole entry): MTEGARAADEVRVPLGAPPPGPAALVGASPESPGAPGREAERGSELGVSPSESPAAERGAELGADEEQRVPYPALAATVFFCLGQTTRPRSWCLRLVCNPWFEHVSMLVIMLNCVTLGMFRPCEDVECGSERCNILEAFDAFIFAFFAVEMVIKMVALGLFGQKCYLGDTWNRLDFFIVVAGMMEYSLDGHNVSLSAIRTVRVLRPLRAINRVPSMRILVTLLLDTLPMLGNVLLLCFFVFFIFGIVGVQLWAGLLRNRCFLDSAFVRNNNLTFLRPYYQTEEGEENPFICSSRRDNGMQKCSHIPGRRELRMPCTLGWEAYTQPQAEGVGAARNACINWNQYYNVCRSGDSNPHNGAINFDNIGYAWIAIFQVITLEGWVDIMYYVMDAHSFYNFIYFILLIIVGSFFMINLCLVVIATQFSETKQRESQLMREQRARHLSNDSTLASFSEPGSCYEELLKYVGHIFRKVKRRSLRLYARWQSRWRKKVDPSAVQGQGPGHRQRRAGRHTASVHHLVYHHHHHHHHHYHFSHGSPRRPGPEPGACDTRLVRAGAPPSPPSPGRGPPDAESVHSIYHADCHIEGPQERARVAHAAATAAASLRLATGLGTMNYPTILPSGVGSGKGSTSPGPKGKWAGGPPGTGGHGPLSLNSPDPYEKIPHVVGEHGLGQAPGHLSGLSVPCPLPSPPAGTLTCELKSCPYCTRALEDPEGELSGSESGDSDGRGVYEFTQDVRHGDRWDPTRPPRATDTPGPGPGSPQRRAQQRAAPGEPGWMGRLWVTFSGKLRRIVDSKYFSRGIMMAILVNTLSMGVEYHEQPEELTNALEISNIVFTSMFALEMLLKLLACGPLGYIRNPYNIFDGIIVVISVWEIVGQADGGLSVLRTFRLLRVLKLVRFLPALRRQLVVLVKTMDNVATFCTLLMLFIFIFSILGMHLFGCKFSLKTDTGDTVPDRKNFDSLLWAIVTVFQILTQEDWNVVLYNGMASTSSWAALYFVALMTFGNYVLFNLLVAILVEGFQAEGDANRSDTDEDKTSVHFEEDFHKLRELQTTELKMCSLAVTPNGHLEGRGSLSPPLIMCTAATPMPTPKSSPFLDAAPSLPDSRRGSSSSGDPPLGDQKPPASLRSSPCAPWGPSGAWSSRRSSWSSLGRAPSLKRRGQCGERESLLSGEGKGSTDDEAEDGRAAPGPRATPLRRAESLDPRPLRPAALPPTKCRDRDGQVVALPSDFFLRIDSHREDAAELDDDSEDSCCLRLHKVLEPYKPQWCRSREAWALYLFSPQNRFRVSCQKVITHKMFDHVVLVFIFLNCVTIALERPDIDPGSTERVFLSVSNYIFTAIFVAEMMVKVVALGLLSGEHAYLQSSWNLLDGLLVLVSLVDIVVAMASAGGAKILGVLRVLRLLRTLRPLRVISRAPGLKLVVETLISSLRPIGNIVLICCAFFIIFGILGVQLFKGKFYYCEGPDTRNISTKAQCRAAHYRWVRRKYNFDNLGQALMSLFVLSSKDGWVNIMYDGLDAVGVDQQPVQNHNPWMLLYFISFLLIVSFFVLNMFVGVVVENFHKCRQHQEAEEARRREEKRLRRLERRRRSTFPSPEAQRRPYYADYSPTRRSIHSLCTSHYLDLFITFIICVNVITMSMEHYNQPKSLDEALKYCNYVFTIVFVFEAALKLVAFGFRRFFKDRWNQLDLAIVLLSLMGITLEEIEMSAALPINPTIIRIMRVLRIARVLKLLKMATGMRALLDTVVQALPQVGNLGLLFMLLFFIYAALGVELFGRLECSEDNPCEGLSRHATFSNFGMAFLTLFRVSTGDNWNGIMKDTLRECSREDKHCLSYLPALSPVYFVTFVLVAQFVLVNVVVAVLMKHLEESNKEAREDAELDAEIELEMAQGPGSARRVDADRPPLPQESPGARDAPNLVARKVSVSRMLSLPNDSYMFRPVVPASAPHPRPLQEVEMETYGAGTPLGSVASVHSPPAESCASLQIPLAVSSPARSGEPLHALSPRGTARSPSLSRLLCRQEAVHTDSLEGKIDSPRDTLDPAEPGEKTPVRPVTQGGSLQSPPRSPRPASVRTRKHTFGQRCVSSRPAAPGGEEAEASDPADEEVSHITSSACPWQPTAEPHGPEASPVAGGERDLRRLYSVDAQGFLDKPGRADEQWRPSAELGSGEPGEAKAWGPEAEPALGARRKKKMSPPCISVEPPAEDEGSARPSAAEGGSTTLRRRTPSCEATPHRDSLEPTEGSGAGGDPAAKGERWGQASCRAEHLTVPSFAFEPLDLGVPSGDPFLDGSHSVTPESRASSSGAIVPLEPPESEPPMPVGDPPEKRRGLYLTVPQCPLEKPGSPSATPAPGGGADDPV
# T7 sequence (P11940 whole entry): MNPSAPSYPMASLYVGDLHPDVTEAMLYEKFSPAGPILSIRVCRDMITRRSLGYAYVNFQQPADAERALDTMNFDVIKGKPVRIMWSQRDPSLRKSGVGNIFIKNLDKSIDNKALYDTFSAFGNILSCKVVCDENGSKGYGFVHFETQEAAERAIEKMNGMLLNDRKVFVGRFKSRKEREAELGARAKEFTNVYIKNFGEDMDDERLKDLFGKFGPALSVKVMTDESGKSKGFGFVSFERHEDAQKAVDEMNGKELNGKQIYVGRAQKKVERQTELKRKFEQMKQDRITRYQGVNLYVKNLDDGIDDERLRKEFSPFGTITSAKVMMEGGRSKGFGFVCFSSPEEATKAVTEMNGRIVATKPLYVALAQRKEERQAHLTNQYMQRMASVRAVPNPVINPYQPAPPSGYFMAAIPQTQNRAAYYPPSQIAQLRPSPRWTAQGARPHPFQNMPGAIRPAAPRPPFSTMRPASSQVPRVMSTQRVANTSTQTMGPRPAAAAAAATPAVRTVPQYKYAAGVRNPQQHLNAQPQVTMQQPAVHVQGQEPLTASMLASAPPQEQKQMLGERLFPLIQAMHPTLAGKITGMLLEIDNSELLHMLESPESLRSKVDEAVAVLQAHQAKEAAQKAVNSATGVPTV
# T2 sequence (Q92731 whole entry): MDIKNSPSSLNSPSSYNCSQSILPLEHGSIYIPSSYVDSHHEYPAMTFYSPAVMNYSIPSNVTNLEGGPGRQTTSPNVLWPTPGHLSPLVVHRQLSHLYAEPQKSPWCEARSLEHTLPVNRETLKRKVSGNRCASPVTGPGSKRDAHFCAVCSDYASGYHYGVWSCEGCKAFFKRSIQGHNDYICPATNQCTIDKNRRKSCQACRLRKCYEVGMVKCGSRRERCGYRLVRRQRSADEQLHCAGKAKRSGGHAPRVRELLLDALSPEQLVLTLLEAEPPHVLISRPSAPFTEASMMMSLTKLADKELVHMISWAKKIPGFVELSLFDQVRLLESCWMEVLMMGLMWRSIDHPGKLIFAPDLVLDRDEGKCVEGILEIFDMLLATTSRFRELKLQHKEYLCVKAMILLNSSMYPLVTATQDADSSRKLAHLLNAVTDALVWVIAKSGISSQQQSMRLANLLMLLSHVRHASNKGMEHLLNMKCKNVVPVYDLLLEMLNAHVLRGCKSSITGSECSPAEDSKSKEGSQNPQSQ
compound,measurement,setting,value
Cc1noc(C)c1CCC(=O)NC1CCCN(Cc2ccc(CC(C)C)cc2)C1 (centres undefined),EC50,[1],3.76 µM (active)
CCOC(=O)Cc1csc(NC(=O)Cc2cccs2)n1,IC50,[2],3.22 µM (not active)
same,IC50,[3],5.81 µM (active)
CCOC(=O)C1Nc2ccc(Br)cc2C2C=CCC12 (centres undefined),IC50,[4],> 100 µM (active)
same,EC50,[5],46 µM (active)
same,EC50,[6],> 300 µM (not active)
CC(C)(C)c1ccccc1NC(=O)NC1CCN(Cc2c(F)cccc2Cl)CC1,EC50,[7],> 195 µM (not active)
same,EC50,[1],2.11 µM (active)
CCC(=O)N1CCN(c2ccc(Cl)cc2NC(=O)Cc2ccccc2)CC1,EC50,[8],10.1 µM (active)
COc1ccc(C(=O)N/N=C(\c2ccccc2)c2ccccn2)cc1,EC50,[9],10.3 µM (active)
same,CC50,[10],2.39 µM (active)
same,AC50,[11],1.18 µM (active)
same,CC50,[12],0.517 µM (active)
same,CC50,[13],3.02 µM (active)
same,EC50,[14],38.6 µM (active)
same,IC50,[15],8.09 µM (active)
same,IC50,[16],> 50 µM (not active)
same,CC50,[17],9.02 µM (active)
Cc1ccc(OCC(=O)N(C)CCc2ccccn2)cc1,EC50,[1],6.68 µM (active)
Cc1cc2ncn(CCCCOc3ccccc3)c2cc1C,EC50,[8],7.27 µM (active)
CCN1CSC(=S)N(Cc2ccc(OC)cc2)C1,CC50,[10],6.33 µM (active)
same,IC50,[18],> 66 µM (inactive)
same,IC50,[19],> 66 µM (inactive)
same,CC50,[12],9.8 µM (active)
same,CC50,[13],12.1 µM (active)
same,IC50,[15],11.8 µM (active)
CCCCN(CCCC)S(=O)(=O)c1ccc(C(=O)Nc2nnc(CSC)o2)cc1,EC50,[8],2.82 µM (active)
CN(C)C(CNC(=O)CCS(=O)(=O)c1ccccc1)c1ccccc1 (centres undefined),EC50,[1],0.376 µM (active)
Cc1nn(Cc2ccc(Cl)c(Cl)c2)c(C)c1NC(=O)c1cc(CC(C)C)on1,EC50,[8],1.28 µM (active)
